According to USRE40851E1, “3,3-diphenylpropylamines, their use and preparation” (Pfizer Health AB, priority 1992, dated 2009):
Counter-ions that a name gives are not always drawn.

What was measured:
[1] = target: muscarinic receptor (cerebral cortex); test: Muscarinic receptor binding, (−)3H-QNB competition, cerebral cortex homogenate; details: guinea pig cerebral cortex, 2 nM (−)3H-QNB, 25° C., 80 minutes
Description: (§1) The tissue preparations and the general methods used have been described in detail elsewhere for the parotid gland^1, urinary bladder^2, heart^3 and cerebral cortex^3, respectively. Male guinea pigs (250-400 g body weight) were killed by a blow on the neck and exsanguinated. The brain was placed on ice for dissection of the cerebral cortex (grey matter only). Urinary bladders, hearts and parotid glands were dissected in a Krebs-Henseleit buffer (pH 7.4) containing 1 mM phenyl methyl sulfonyl fluoride (PMSF, a protease inhibitor). Dissected tissues were homogenized in an ice-cold sodium-potassium phosphate buffer (50 mM, pH 7.4) containing 1 mM PMSF, using a Polytron PT-10 instrument (bladder, heart, parotid) and a Potter-Elvehjem Teflon homogenizer (cortex). All homogenates were finally diluted with the ice-cold phosphate/PMSF buffer to a final protein concentration of ≦0.3 mg/ml and immediately used in the receptor binding assays. Protein was determined by the method of Lowry et al. (1951)^4, using bovine serum albumin as the standard.
(§2) The muscarinic receptor affinities of the unlabelled compounds A to D identified above were derived from competition experiments in which the ability to inhibit the receptor specific binding of (−)^3H-QNB (1-quinuclidinyl[phenyl-4-^3H]benzilate, 32.9 Ci/mmole) was monitored as previously described^3,5. Each sample contained 10 μl of (−)^3H-QNB (final concentration 2 nM), 10 μl solution of test compound and 1.0 ml tissue homogenate. Triplicate samples were incubated under conditions of equilibrium, i.e., at 25° C. for 60 minutes (urinary bladder), 80 minutes (heart and cerebral cortex) or 210 minutes (parotid gland), respectively. Non-specific binding was determined in the presence of 10 μM unlabelled atropine. Incubations were terminated by centrifugation^2, and the radioactivity in the pellets was determined by liquid scintillation spectrometry^2.
(§3) IC50-values (concentration of unlabelled compound producing 50% inhibition of the receptor specific (−)^3H-QNB binding) were graphically determined from the experimental concentration-inhibition curves. Affinities, expressed as the dissociation constants Ki, were calculated by correcting the IC50 for the radioligand-induced parallel shift and differences in receptor concentration, using the method of Jacobs et al. (1975)^6. The binding parameters for (−)^3H-QNB (KD and receptor densities) used in these calculations were determined in separate series of experiments^1-3.

[2] = target: muscarinic receptor (urinary bladder); test: Muscarinic receptor binding, (−)3H-QNB competition, urinary bladder homogenate; details: guinea pig urinary bladder, 2 nM (−)3H-QNB, 25° C., 60 minutes
Description: as §1, §2, §3

[3] = target: Smooth muscle strips of the urinary bladder (carbachol contraction); test: Functional in vitro study: antagonism of carbachol-induced contraction of urinary bladder smooth muscle strips; details: guinea pig urinary bladder strips, carbachol agonist, 60 min incubation with antagonist; read-out: KH bladder
Description: Male guinea pigs, weighing about 300 g, were killed by a blow on the neck and exsanguinated. Smooth muscle strips of the urinary bladder were dissected in a Krebs-Henseleit solution (pH 7.4). The strip preparations were vertically mounted between two hooks in thermostatically controlled (37° C.) organ baths (5 ml). One of the hooks was adjustable and connected to a force transducer (FT 03, Grass Instruments). The Krebs-Henseleit solution was continuously bubbled with carbogen gas (93.5% O2/6.5% CO2) to maintain the pH at 7.4. Isometric tension was recorded by a Grass Polygraph (Model 79D). A resting tension of approximately 5 mN was initially applied on each muscle strip and the preparations were allowed to stabilize for at least 45 min. The resting tension was repeatedly adjusted and the preparations were washed several times during the stabilization period.
Carbachol (carbamylcholine chloride) was used as the standard agonist. In each experiment, the viability of the preparations and the reproducibility of their contractile responses were initially tested by three consecutive additions of a submaximal concentration (3×10^−6M) of carbachol. A complete concentration-response curve to carbachol was then generated by cumulative addition of carbachol to the organ-bath (i.e., stepwise increase of the agonist concentration until the maximal contractile response was reached), followed by washing out and a resting period of at least 15 min. before a fix concentration of the test compound (antagonist) was added to the organ-bath. After 60 min. of incubation with the antagonist, a second cumulative concentration-response curve to carbachol was generated. Responses were expressed as per cent of the maximal response to carbachol. EC50-values for carbachol in the absence (control) and presence of antagonist were graphically derived and dose ratios (r) were calculated. Dissociation constants, KB, for the antagonists were calculated using equation (1)^7, where [A] is the concentration of test compound. KB=[A]/r−1 (1)

[4] = test system: acetylcholine-induced effect on the bladder; test: Functional in vivo study in anaesthetized cats: bladder pressure; details: cat, intravenous infusion
Description: Adult cats were anaesthetized with mebumal (42 mg/kg) intraperitoneally. When the animal was asleep, an infusion cannula was inserted into the foreleg vein and the cat was given alpha-chloralose. During the experiment the animal was placed on an operation table warmed up with a feedback controlled electric pad. The cat was tracheotomized. For blood pressure registration, a polyethylene catheter was inserted into the femoral artery, with the tip in aorta, and connected via a three-way stopcock to a blood pressure transducer and a Grass polygraph. Heart rate was registered by connecting a tachograph to a driver amplifier which received the signal from the blood pressure transducer. Blood flow in the central mesenteric artery was measured by an ultrasound flow probe around the artery connected to a transonic blood flow meter and then to a Grass polygraph for registration of the flow. […]
Through an incision in the proximal urethra, a catheter was inserted into the urinary bladder. […] Blood pressure, heart rate, blood flow and bladder pressure were recorded simultaneously and continuously throughout the experiment. […]
Bladder pressure was measured at 8 minutes after the end of infusion of the test substance. […]
(§4) The results are presented in absolute values and calculated as mean value±standard deviation

[5] = Functional in vivo study in anaesthetized cats: blood pressure, blood flow, heart rate; details: cat
Description: Adult cats were anaesthetized with mebumal (42 mg/kg) intraperitoneally. When the animal was asleep, an infusion cannula was inserted into the foreleg vein and the cat was given alpha-chloralose. During the experiment the animal was placed on an operation table warmed up with a feedback controlled electric pad. The cat was tracheotomized. For blood pressure registration, a polyethylene catheter was inserted into the femoral artery, with the tip in aorta, and connected via a three-way stopcock to a blood pressure transducer and a Grass polygraph. Heart rate was registered by connecting a tachograph to a driver amplifier which received the signal from the blood pressure transducer. Blood flow in the central mesenteric artery was measured by an ultrasound flow probe around the artery connected to a transonic blood flow meter and then to a Grass polygraph for registration of the flow. For infusion of the test substances, compounds D and A (as identified above), a polyethylene catheter was inserted into the femoral vein three-way stopcock to a syringe placed in an infusion pump (Sage instrument).
Through an incision in the proximal urethra, a catheter was inserted into the urinary bladder. At the beginning of each experiment, this catheter was connected to an open vessel, which was filled with 38° C. tempered physiological saline and placed above the animal. During this stabilization period the bladder relaxed, leading to a filling of the bladder with saline, under constant hydrostatic pressure. After the stabilization period, the bladder catheter was connected to a pressure transducer, for registration of intravesical pressure. Blood pressure, heart rate, blood flow and bladder pressure were recorded simultaneously and continuously throughout the experiment. The animals were left for at least 45 minutes to achieve steady state in cardiovascular variables before starting the experiment.
Bladder pressure was measured at 8 minutes after the end of infusion of the test substance. The surgical preparation was tested by intravenous injection of 0.25 μg/kg b.w. of noradrenalin and 0.5 μg/kg b.w. of acetylcholine.
To study the dose-response relationship of compound D identified above, the substance was administered at the doses 0.000 (physiological saline), 0.003, 0.010, 0.030 and 0.100 mg/kg, respectively, with infusion during 2 minutes and an infusion volume of 1 mL/kg. Every cat got all doses and was left to reestablish at least 45 minutes between the 0.003 and 0.010 mg/kg doses, and 60 minutes between the 0.030 and 0.100 mg/kg doses.
as §4

[6] = intravenous, highest dose (0.3 mg/kg)

SMILES: CC(C)N(CCC(c1ccccc1O)c1ccccc1O)C(C)C [(B), N,N-diisopropyl-3-bis-(2-hydroxyphenyl)propylamine hydrochloride]
- Ki [1]: 1.5 nM
- Ki [2]: 10.2 nM

SMILES: CC(C)N(CCC(c1ccccc1O)c1cc(Cl)ccc1O)C(C)C (single isomer, unassigned; (+)) [(C), (+)N,N-diisopropyl-3-(5-chloro-2-hydroxyphenyl)-3-(2-hydroxyphenylpropylamine, hydrochloride]
- Kd [3]: 2.6 nM
- Ki [1]: 0.4 nM
- Ki [2]: 2.5 nM

SMILES: Cc1ccc(O)c(C(CCN(C(C)C)C(C)C)c2ccccc2)c1 (single isomer, unassigned; (+)) [(A), (+)N,N-diisopropyl-3-(2-hydroxy-5-methylphenyl)-3-phenylpropylamine, hydrochloride]
- Kd [3]: 3 nM
- Ki [1]: 0.8 nM
- Ki [2]: 2.7 nM

SMILES: CC(C)N(CCC(c1ccccc1)c1cc(CO)ccc1O)C(C)C (stereo not drawn) [(D), (+)-N,N-diisopropyl-3-(2-hydroxy-5-hydroxymethylphenyl)-3-phenylpropylamine(+)mandelic acid salt]
- inhibition of the acetylcholine-induced effect on the bladder (bladder pressure) ([4]; bladder pressure 8 minutes after end of infusion): dose-dependent inhibition
- efficiency of bladder pressure inhibition relative to prior art compound A ([4]; versus compound A): about ten times more efficient
- increase of diastolic blood pressure ([5]; intravenous, 0,3 mg/kg): 10%
- increase of systolic blood pressure ([5]; intravenous, 0,3 mg/kg): 6%
- increase of the blood flow in superior mesenterica artery ([5]; intravenous, 0.003 mg/kg): 8%
- increase of the blood flow in superior mesenterica artery ([5]; intravenous, 0.01 mg/kg): 17%
- increase of the blood flow in superior mesenterica artery ([5]; intravenous, 0.03 mg/kg): 21%
- effect on the blood pressure ([5]; intravenous, doses other than 0,3 mg/kg): little or no effect
- decrease of heart rate [5, 6]: 9%
- increase in blood flow [5, 6]: 10%
- Kd [3]: 4.1 nM
- Ki [1]: 0.7 nM
- Ki [2]: 4.5 nM
